Activity calls are given as the source filed them.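 Rule for the calls: active = cell-killing curve crosses a set limit at a concentration no more than twice the top valid dose; inconclusive = flat curve with a 30 to 70% loss, or a poor fit; inactive = signal rising instead of falling, and the rest.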

Drawing on PubChem BioAssay AID720570 (Broad Institute, 2013), this text covers activity change, negative = cytotoxicity for 29 compounds.

This assay can be described thus: TC71 Ewing sarcoma cell killing, confirmation, luminescence, cherry-picked samples, retest (AID 720570). The following applies: TC71 Ewing sarcoma viability, CellTiter-Glo ATP, 72 h; at 26 µM (top of the series).
For `C[C@@H]1CN([C@@H](C)CO)C(=O)c2cccc(NC(=O)Nc3ccccc3)c2O[C@@H]1CN(C)Cc1ccc(-c2ccccc2)cc1`, the activity change, negative = cytotoxicity was 20.4% (inactive).

Take `CCOc1cc2[nH]c(=S)n(Cc3ccc(C(=O)N4CCN(C)CC4)cc3)c(=O)c2cc1OCC`: the activity change, negative = cytotoxicity is 11.2% (inactive).

Consider `Cc1ccc(C(=O)CN2C(=O)c3ccccc3S2(=O)=O)cc1`, for which the activity change, negative = cytotoxicity is 1.85% (inactive).

Consider `CN(C)C(=O)c1ccc(-c2ccccc2[C@@H]2[C@@H](CO)N(C(=O)C3CC3)[C@H]2C#N)cc1`, for which the activity change, negative = cytotoxicity was 25.5% (inactive).

`O=C(Cc1nn[nH]n1)c1ccccc1O`: the activity change, negative = cytotoxicity was 13.8% (inactive).

As for `CCNC(=O)c1cccc(S(=O)(=O)N2CCCCCC2)c1`, the activity change, negative = cytotoxicity is -7.03% (inactive).

Regarding `CCS(=O)(=O)N1Cc2ccccc2CC1C(=O)Nc1nnc(SCc2ccc(C#N)cc2)s1` (centres undefined), the activity change, negative = cytotoxicity is 21.3% (inactive).

Turning to `CCC(C)Cn1c(O)cc2nn(-c3nc4ccccc4s3)c(=O)c-2c1C` (centres undefined), the activity change, negative = cytotoxicity was -4.93% (inactive).

On to `COc1ccc(C/C(N)=N/OC(C)=O)cc1OC`, for which the activity change, negative = cytotoxicity is 9.15% (inactive).

Regarding `Cc1ccc(C(=O)O/N=C(\N)c2ccccn2)cc1`, the activity change, negative = cytotoxicity was -10% (inactive).

Consider `O=C(/C=C/c1ccc(Cl)cc1Cl)N(Cc1ccc(Cl)cc1)C1CCS(=O)(=O)C1` (centres undefined), for which the activity change, negative = cytotoxicity is 11.6% (inactive).

Consider `CCn1c(C)cc(C(=O)CN2C(=O)c3ccccc3S2(=O)=O)c1C`, for which the activity change, negative = cytotoxicity was 9.04% (inactive).

`C(=N\Nc1ccc2ccccc2n1)/c1ccc2c(c1)OCCO2`: the activity change, negative = cytotoxicity was -8.46% (inactive).

In the case of `CC(=O)Nc1cc(C(=O)NCc2ccco2)ccc1Sc1ccc(F)cc1`, the activity change, negative = cytotoxicity was -1.03% (inactive).

`COc1ccc(/C=C2\SC(=S)N(CCCC(=O)NC3CCCC3)C2=O)cc1OC`: the activity change, negative = cytotoxicity is -1.55% (inactive).

In the case of `COC(=O)C[C@@H]1CC[C@@H]2[C@H](COc3ccc(NC(=O)c4ccc(F)c(F)c4)cc3C(=O)N2C)O1`, the activity change, negative = cytotoxicity is 9.2% (inactive).

For the compound `CN(C)c1ccc(N=Nc2ccccc2Br)cc1`, the activity change, negative = cytotoxicity is -15.6% (inactive).

As to `COC(=O)Cc1ccc(NC(=O)c2ccccc2Cl)cc1`, the activity change, negative = cytotoxicity was -1.96% (inactive).

On to `CC(C)c1ccc(OCc2cccc(C(=O)N/N=C/c3cccnc3)c2)cc1`, for which the activity change, negative = cytotoxicity was 0.747% (inactive).

`COc1ccc(/C=C2\SC(=O)N(CCCC(=O)Nc3ccc(C(=O)O)cc3)C2=O)cc1`: the activity change, negative = cytotoxicity is 21.2% (inactive).

`Cc1ccc(Cc2c(-c3ccco3)nc3c(C)cc(Br)cn23)cc1`: the activity change, negative = cytotoxicity was -21.5% (inactive).

As to `CCOc1ccc(N=C2C(=O)Nc3ccc(C)c(Br)c32)cc1`, the activity change, negative = cytotoxicity is 8.53% (inactive).

On to `C[C@@H]1CN([C@H](C)CO)C(=O)CCCn2nncc2CO[C@H]1CN(C)Cc1ccc(Oc2ccccc2)cc1`, for which the activity change, negative = cytotoxicity was -9.65% (inactive).

For `O=C(O)c1cccc(N/N=C/c2cccs2)c1`, the activity change, negative = cytotoxicity is 8.12% (inactive).

`N#C[C@@H]1[C@H](c2ccc(C#Cc3cccc(F)c3)cc2)[C@@H](CO)N1C(=O)C1CCCC1`: the activity change, negative = cytotoxicity is -12.2% (inactive).

`COc1ccccc1-c1cn(CC[C@H]2CC[C@@H](NC(=O)C3CCCC3)[C@@H](CO)O2)nn1`: the activity change, negative = cytotoxicity is 12.9% (inactive).

As to `CC(C)CN(C(=O)CN1CCOCC1)c1c(N)n(CC(C)C)c(=O)[nH]c1=O`, the activity change, negative = cytotoxicity is -2.81% (inactive).

As to `Cc1ccc(NC(=O)COC(=O)c2ccc3c(c2)OCO3)cc1S(=O)(=O)N1CCCCC1`, the activity change, negative = cytotoxicity was 10.2% (inactive).

Regarding `Cc1ccc(/C=C/C(=O)N2CCN(S(=O)(=O)c3c(C)c(C)cc(C)c3C)CC2)o1`, the activity change, negative = cytotoxicity was -5.96% (inactive).
